# Laboratory results published in PubChem BioAssay (NCI).
#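 These data come from cells grown in 96-well plates and exposed to compound for 48 hours at five concentrations. Definition used: TGI = concentration required for complete inhibition of growth.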
# Assays:
# Assay in all cases: DTP human tumour cell line panel, 48 h
# 786-0 renal = test system: 786-0 renal
# A498 renal = test system: A498 renal
# A549 NSCLC = test system: A549 NSCLC
# ACHN renal = test system: ACHN renal
# CAKI-1 renal = test system: CAKI-1 renal
# CCRF-CEM leukemia = test system: CCRF-CEM leukemia
# DU-145 prostate = test system: DU-145 prostate
# EKVX NSCLC = test system: EKVX NSCLC
# HCT-116 colon = test system: HCT-116 colon
# HCT-15 colon = test system: HCT-15 colon
# HL-60(TB) leukemia = test system: HL-60(TB) leukemia
# HOP-62 NSCLC = test system: HOP-62 NSCLC
# HOP-92 NSCLC = test system: HOP-92 NSCLC
# HS 578T breast = test system: HS 578T breast
# HT29 colon = test system: HT29 colon
# IGROV1 ovarian = test system: IGROV1 ovarian
# K-562 leukemia = test system: K-562 leukemia
# KM12 colon = test system: KM12 colon
# LOX IMVI melanoma = test system: LOX IMVI melanoma
# M14 melanoma = test system: M14 melanoma
# MCF7 breast = test system: MCF7 breast
# MDA-MB-231 breast = test system: MDA-MB-231 breast
# MDA-MB-435 = test system: MDA-MB-435
# MDA-N = test system: MDA-N
# MOLT-4 leukemia = test system: MOLT-4 leukemia
# OVCAR-5 ovarian = test system: OVCAR-5 ovarian
# OVCAR-8 ovarian = test system: OVCAR-8 ovarian
# PC-3 prostate = test system: PC-3 prostate
# RPMI-8226 leukemia = test system: RPMI-8226 leukemia
# RXF 393 renal = test system: RXF 393 renal
# SF-268 CNS = test system: SF-268 CNS
# SK-MEL-2 melanoma = test system: SK-MEL-2 melanoma
# SK-MEL-28 melanoma = test system: SK-MEL-28 melanoma
# SK-MEL-5 melanoma = test system: SK-MEL-5 melanoma
# SK-OV-3 ovarian = test system: SK-OV-3 ovarian
# SN12C renal = test system: SN12C renal
# SNB-19 CNS = test system: SNB-19 CNS
# SNB-75 CNS = test system: SNB-75 CNS
# SR leukemia = test system: SR leukemia
# SW-620 colon = test system: SW-620 colon
# TK-10 renal = test system: TK-10 renal
# U251 CNS = test system: U251 CNS
# UACC-257 melanoma = test system: UACC-257 melanoma
# UACC-62 melanoma = test system: UACC-62 melanoma
# UO-31 renal = test system: UO-31 renal
# COLO 205 colon = test system: COLO 205 colon
# HCC-2998 colon = test system: HCC-2998 colon
# MALME-3M melanoma = test system: MALME-3M melanoma
# NCI-H226 lung = test system: NCI-H226 lung
# NCI-H23 lung = test system: NCI-H23 lung
# NCI/ADR-RES ovarian = test system: NCI/ADR-RES ovarian
# SF-295 CNS = test system: SF-295 CNS
# SF-539 CNS = test system: SF-539 CNS
# T-47D breast = test system: T-47D breast
smiles,measurement,setting,value
N#Cc1nc(/C=C/c2cccs2)oc1N,TGI,786-0 renal,> 100 µM
same,TGI,A498 renal,> 100 µM
same,TGI,A549 NSCLC,> 100 µM
same,TGI,ACHN renal,> 100 µM
same,TGI,CAKI-1 renal,> 100 µM
same,TGI,CCRF-CEM leukemia,> 100 µM
same,TGI,DU-145 prostate,> 100 µM
same,TGI,EKVX NSCLC,> 100 µM
same,TGI,HCT-116 colon,> 100 µM
same,TGI,HCT-15 colon,> 100 µM
same,TGI,HL-60(TB) leukemia,> 100 µM
same,TGI,HOP-62 NSCLC,> 100 µM
same,TGI,HOP-92 NSCLC,> 100 µM
same,TGI,HS 578T breast,> 100 µM
same,TGI,HT29 colon,> 100 µM
same,TGI,IGROV1 ovarian,> 100 µM
same,TGI,K-562 leukemia,> 100 µM
same,TGI,KM12 colon,> 100 µM
same,TGI,LOX IMVI melanoma,> 100 µM
same,TGI,M14 melanoma,> 100 µM
same,TGI,MCF7 breast,> 100 µM
same,TGI,MDA-MB-231 breast,> 100 µM
same,TGI,MDA-MB-435,> 100 µM
same,TGI,MDA-N,> 100 µM
same,TGI,MOLT-4 leukemia,> 100 µM
same,TGI,OVCAR-5 ovarian,> 100 µM
same,TGI,OVCAR-8 ovarian,> 100 µM
same,TGI,PC-3 prostate,> 100 µM
same,TGI,RPMI-8226 leukemia,> 100 µM
same,TGI,RXF 393 renal,> 100 µM
same,TGI,SF-268 CNS,> 100 µM
same,TGI,SK-MEL-2 melanoma,> 100 µM
same,TGI,SK-MEL-28 melanoma,> 100 µM
same,TGI,SK-MEL-5 melanoma,> 100 µM
same,TGI,SK-OV-3 ovarian,> 100 µM
same,TGI,SN12C renal,> 100 µM
same,TGI,SNB-19 CNS,> 100 µM
same,TGI,SNB-75 CNS,> 100 µM
same,TGI,SR leukemia,74 µM
same,TGI,SW-620 colon,> 100 µM
same,TGI,TK-10 renal,> 100 µM
same,TGI,U251 CNS,> 100 µM
same,TGI,UACC-257 melanoma,> 100 µM
same,TGI,UACC-62 melanoma,> 100 µM
same,TGI,UO-31 renal,63.6 µM
CCOC(=O)C1C(c2ccccc2)C2(C#N)C(=N)OC1(C)C2(C#N)C#N (centres undefined),TGI,786-0 renal,26.4 µM
same,TGI,A498 renal,97.6 µM
same,TGI,A549 NSCLC,> 100 µM
same,TGI,ACHN renal,50.8 µM
same,TGI,CAKI-1 renal,20.3 µM
same,TGI,CCRF-CEM leukemia,99.7 µM
same,TGI,COLO 205 colon,31.5 µM
same,TGI,DU-145 prostate,> 100 µM
same,TGI,EKVX NSCLC,> 100 µM
same,TGI,HCC-2998 colon,27 µM
same,TGI,HCT-116 colon,35.7 µM
same,TGI,HCT-15 colon,> 100 µM
same,TGI,HL-60(TB) leukemia,55.7 µM
same,TGI,HOP-92 NSCLC,48.6 µM
same,TGI,HS 578T breast,> 100 µM
same,TGI,HT29 colon,29.4 µM
same,TGI,IGROV1 ovarian,37.8 µM
same,TGI,K-562 leukemia,48.8 µM
same,TGI,LOX IMVI melanoma,29.4 µM
same,TGI,M14 melanoma,> 100 µM
same,TGI,MALME-3M melanoma,54.3 µM
same,TGI,MCF7 breast,> 100 µM
same,TGI,MDA-MB-231 breast,26.7 µM
same,TGI,MDA-MB-435,51.6 µM
same,TGI,MDA-N,27.9 µM
same,TGI,MOLT-4 leukemia,56 µM
same,TGI,NCI-H226 lung,> 100 µM
same,TGI,NCI-H23 lung,37 µM
same,TGI,NCI/ADR-RES ovarian,85.9 µM
same,TGI,OVCAR-5 ovarian,72.6 µM
same,TGI,OVCAR-8 ovarian,80.4 µM
same,TGI,PC-3 prostate,> 100 µM
same,TGI,RPMI-8226 leukemia,42.6 µM
same,TGI,RXF 393 renal,35.5 µM
same,TGI,SF-268 CNS,94 µM
same,TGI,SF-295 CNS,> 100 µM
same,TGI,SF-539 CNS,37.4 µM
same,TGI,SK-MEL-2 melanoma,59.6 µM
same,TGI,SK-MEL-5 melanoma,25.1 µM
same,TGI,SK-OV-3 ovarian,> 100 µM
same,TGI,SNB-19 CNS,> 100 µM
same,TGI,SNB-75 CNS,34.7 µM
same,TGI,SW-620 colon,> 100 µM
same,TGI,T-47D breast,> 100 µM
same,TGI,TK-10 renal,69.7 µM
same,TGI,U251 CNS,> 100 µM
same,TGI,UACC-257 melanoma,54.2 µM
same,TGI,UACC-62 melanoma,82.6 µM
same,TGI,UO-31 renal,31.4 µM
